# Target: PLK1 (Homo sapiens, UniProt P53350)
# Experiment: PLK1 Inhibition Assay I (radioactive-phosphate incorporation)
# Type: biochemical
# Conditions: Ki(app); PLK1 Inhibition Assay I or II (table does not say which)
# How it was run: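 Ki(app) values came from non-linear regression of initial rates after background subtraction, with phosphopeptide measured by phosphocellulose filter binding and scintillation counting. PLK1 at 2 nM was preincubated with compound (typically from 10 μM, 2-fold dilutions) for 10 min, then run 240 min at 25° C with 350 μM [γ-33P]ATP and 450 μM peptide substrate in HEPES pH 7.5 buffer.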
# Sequence of PLK1 (P53350 whole entry): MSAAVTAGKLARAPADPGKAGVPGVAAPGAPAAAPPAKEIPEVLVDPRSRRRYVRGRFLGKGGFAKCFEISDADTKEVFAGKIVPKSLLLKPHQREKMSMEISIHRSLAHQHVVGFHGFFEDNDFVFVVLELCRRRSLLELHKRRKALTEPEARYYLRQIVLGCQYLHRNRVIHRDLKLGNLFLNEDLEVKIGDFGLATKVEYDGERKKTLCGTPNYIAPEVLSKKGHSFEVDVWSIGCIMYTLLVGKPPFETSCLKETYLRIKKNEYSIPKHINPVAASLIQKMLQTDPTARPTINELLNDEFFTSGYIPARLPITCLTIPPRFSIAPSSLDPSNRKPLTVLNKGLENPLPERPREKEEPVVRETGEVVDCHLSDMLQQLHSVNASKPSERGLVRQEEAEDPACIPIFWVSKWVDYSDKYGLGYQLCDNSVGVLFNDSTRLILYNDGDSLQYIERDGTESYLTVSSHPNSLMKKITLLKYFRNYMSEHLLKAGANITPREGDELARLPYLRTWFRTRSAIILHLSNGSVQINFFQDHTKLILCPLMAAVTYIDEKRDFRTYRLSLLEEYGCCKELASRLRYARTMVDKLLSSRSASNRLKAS
row,SMILES,Ki
1,"CCC(Nc1ncc(C#N)c(-c2c[nH]c3ncc(C(F)(F)F)cc23)n1)c1ccccc1 (stereo not shown) [Compound I-16, 2-(1-phenylpropylamino)-4-(5-(trifluoromethyl)-1H-pyrrolo[2,3-b]pyridin-3-yl)pyrimidine-5-carbonitrile]",3 to 40 nM
2,"C[C@H](CO)Nc1ncc(C#N)c(-c2c[nH]c3ncc(C(F)(F)F)cc23)n1 [Compound I-107, 2-((R)-1-hydroxypropan-2-ylamino)-4-(5-(trifluoromethyl)-1H-pyrrolo[2,3-b]pyridin-3-yl)pyrimidine-5-carbonitrile]",3 to 40 nM
3,"C[C@H](CN1CCOCC1)Nc1ncc(C#N)c(-c2c[nH]c3ncc(C(F)(F)F)cc23)n1 [Compound I-132, 2-((R)-1-morpholinopropan-2-ylamino)-4-(5-(trifluoromethyl)-1H-pyrrolo[2,3-b]pyridin-3-yl)pyrimidine-5-carbonitrile]",3 to 40 nM
4,"N#Cc1cnc(NC[C@@H](O)CO)nc1-c1c[nH]c2ncc(C(F)(F)F)cc12 [Compound I-115, 2-((R)-2,3-dihydroxypropylamino)-4-(5-(trifluoromethyl)-1H-pyrrolo[2,3-b]pyridin-3-yl)pyrimidine-5-carbonitrile]",3 to 40 nM
5,"N#Cc1cnc(NCc2ccccn2)nc1-c1c[nH]c2ncc(C(F)(F)F)cc12 [Compound I-64, 2-(pyridin-2-ylmethylamino)-4-(5-(trifluoromethyl)-1H-pyrrolo[2,3-b]pyridin-3-yl)pyrimidine-5-carbonitrile]",> 40 nM
6,"N#Cc1cnc(NC(CO)c2ccccc2)nc1-c1c[nH]c2ncc(C(F)(F)F)cc12 (stereo not shown) [Compound I-75, 2-(2-hydroxy-1-phenylethylamino)-4-(5-(trifluoromethyl)-1H-pyrrolo[2,3-b]pyridin-3-yl)pyrimidine-5-carbonitrile]",3 to 40 nM
7,"N#Cc1cnc(NCc2ccc(O)c(O)c2)nc1-c1c[nH]c2ncc(C(F)(F)F)cc12 [Compound I-37, 2-(3,4-dihydroxybenzylamino)-4-(5-(trifluoromethyl)-1H-pyrrolo[2,3-b]pyridin-3-yl)pyrimidine-5-carbonitrile]",> 40 nM
8,"CC(C)(C)Nc1ncc(C#N)c(-c2c[nH]c3ncc(C(F)(F)F)cc23)n1 [Compound I-4, 2-(tert-butylamino)-4-(5-(trifluoromethyl)-1H-pyrrolo[2,3-b]pyridin-3-yl)pyrimidine-5-carbonitrile]",> 40 nM
9,"CC(C)CNc1ncc(C#N)c(-c2c[nH]c3ncc(C(F)(F)F)cc23)n1 [Compound I-36, 2-(isobutylamino)-4-(5-(trifluoromethyl)-1H-pyrrolo[2,3-b]pyridin-3-yl)pyrimidine-5-carbonitrile]",3 to 40 nM
10,"COc1cccc(CNc2ncc(C#N)c(-c3c[nH]c4ncc(C(F)(F)F)cc34)n2)c1 [Compound I-20, 2-(3-methoxybenzylamino)-4-(5-(trifluoromethyl)-1H-pyrrolo[2,3-b]pyridin-3-yl)pyrimidine-5-carbonitrile]",> 40 nM
11,"CC(C)C(C)Nc1ncc(C#N)c(-c2c[nH]c3ncc(C(F)(F)F)cc23)n1 (stereo not shown) [Compound I-24, 2-(3-methylbutan-2-ylamino)-4-(5-(trifluoromethyl)-1H-pyrrolo[2,3-b]pyridin-3-yl)pyrimidine-5-carbonitrile]",3 to 40 nM
12,"C[C@@H](Nc1ncc(C#N)c(-c2c[nH]c3ncc(C(F)(F)F)cc23)n1)c1ccc(N2CCN(Cc3ccccc3)CC2)cc1 [Compound I-130, 2-((R)-1-(4-(4-benzylpiperazin-1-yl)phenyl)ethylamino)-4-(5-(trifluoromethyl)-1H-pyrrolo[2,3-b]pyridin-3-yl)pyrimidine-5-carbonitrile]",< 3 nM
13,"N#Cc1cnc(NCCc2ccccc2)nc1-c1c[nH]c2ncc(C(F)(F)F)cc12 [Compound I-7, 2-(phenethylamino)-4-(5-(trifluoromethyl)-1H-pyrrolo[2,3-b]pyridin-3-yl)pyrimidine-5-carbonitrile]",> 40 nM
14,"N#Cc1cnc(NC(CO)C2CCOCC2)nc1-c1c[nH]c2ncc(C(F)(F)F)cc12 (stereo not shown) [Compound I-105, 2-(2-hydroxy-1-(tetrahydro-2H-pyran-4-yl)ethylamino)-4-(5-(trifluoromethyl)-1H-pyrrolo[2,3-b]pyridin-3-yl)pyrimidine-5-carbonitrile]",3 to 40 nM
15,"N#Cc1cnc(NCc2ccc(Cl)nc2)nc1-c1c[nH]c2ncc(C(F)(F)F)cc12 [Compound I-50, 2-((6-chloropyridin-3-yl)methylamino)-4-(5-(trifluoromethyl)-1H-pyrrolo[2,3-b]pyridin-3-yl)pyrimidine-5-carbonitrile]",> 40 nM

# The next lines start with the values.
row,Ki,SMILES
1,> 40 nM,"CC(C)(Nc1ncc(C#N)c(-c2c[nH]c3ncc(C(F)(F)F)cc23)n1)C(=O)NCCO [IA-14, 2-(5-cyano-4-(5-(trifluoromethyl)-1H-pyrrolo[2,3-b]pyridin-3-yl)pyrimidin-2-ylamino)-N-(2-hydroxyethyl)-2-methylpropanamide]"
2,3 to 40 nM,"CC(C)(Nc1ncc(C#N)c(-c2c[nH]c3ncc(Cl)cc23)n1)C(=O)NC1CCCC1 [IA-4, 2-(4-(5-chloro-1H-pyrrolo[2,3-b]pyridin-3-yl)-5-cyanopyrimidin-2-ylamino)-N-cyclopentyl-2-methylpropanamide]"
3,< 3 nM,"C[C@@H](Nc1ncc(C#N)c(-c2c[nH]c3ncc(C(F)(F)F)cc23)n1)C1CCN(C(=O)[C@@H]2CCC[C@@H]2N)CC1 [Compound I-246, 2-((R)-1-(1-((1R,2S)-2-aminocyclopentanecarbonyl)piperidin-4-yl)ethylamino)-4-(5-(trifluoromethyl)-1H-pyrrolo[2,3-b]pyridin-3-yl)pyrimidine-5-carbonitrile]"
4,> 40 nM,"N#Cc1cnc(Oc2ccccc2)nc1-c1c[nH]c2ncc(C(F)(F)F)cc12 [EG4, 2-Phenoxy-4-(5-(trifluoromethyl)-1H-pyrrolo[2,3-b]pyridin-3-yl)pyrimidine-5-carbonitrile]"
5,3 to 40 nM,"CC(C)C[C@@H](N)C(=O)N1CCC([C@@H](C)Nc2ncc(C#N)c(-c3c[nH]c4ncc(C(F)(F)F)cc34)n2)CC1 [Compound I-241, 2-((R)-1-(1-((R)-2-amino-4-methylpentanoyl)piperidin-4-yl)ethylamino)-4-(5-(trifluoromethyl)-1H-pyrrolo[2,3-b]pyridin-3-yl)pyrimidine-5-carbonitrile]"
6,< 3 nM,"C[C@H](N)CC(=O)N1CCC([C@@H](C)Nc2ncc(C#N)c(-c3c[nH]c4ncc(C(F)(F)F)cc34)n2)CC1 [Compound I-244, 2-((R)-1-(1-((S)-3-aminobutanoyl)piperidin-4-yl)ethylamino)-4-(5-(trifluoromethyl)-1H-pyrrolo[2,3-b]pyridin-3-yl)pyrimidine-5-carbonitrile]"
7,< 3 nM,"C[C@@H](Nc1ncc(C#N)c(-c2c[nH]c3ncc(C(F)(F)F)cc23)n1)c1ccc(N2CCN3CCC[C@H]3C2)nc1 [Compound I-291, 2-((R)-1-(6-((S)-hexahydropyrrolo[1,2-a]pyrazin-2(1H)-yl)pyridin-3-yl)ethylamino)-4-(5-(trifluoromethyl)-1H-pyrrolo[2,3-b]pyridin-3-yl)pyrimidine-5-carbonitrile]"
8,> 40 nM,"CCOc1cccc(Sc2ncc(C#N)c(-c3c[nH]c4ncc(C(F)(F)F)cc34)n2)c1 [II-9, 2-(3-ethoxyphenylthio)-4-(5-(trifluoromethyl)-1H-pyrrolo[2,3-b]pyridin-3-yl)pyrimidine-5-carbonitrile]"
9,3 to 40 nM,"N#Cc1cnc(Sc2ccccc2)nc1-c1c[nH]c2ncc(C(F)(F)F)cc12 [II-0, 2-(phenylthio)-4-(5-(trifluoromethyl)-1H-pyrrolo[2,3-b]pyridin-3-yl)pyrimidine-5-carbonitrile]"
10,> 40 nM,"CC(C)Sc1ncc(C#N)c(-c2c[nH]c3ncc(C(F)(F)F)cc23)n1 [II-12, 2-(isopropylthio)-4-(5-(trifluoromethyl)-1H-pyrrolo[2,3-b]pyridin-3-yl)pyrimidine-5-carbonitrile]"
11,< 3 nM,"C[C@@H](Nc1ncc(C#N)c(-c2c[nH]c3ncc(C(F)(F)F)cc23)n1)C1CCN(C(=O)[C@H](N)CC#N)CC1 [Compound I-251, 2-((R)-1-(1-((R)-2-amino-3-cyanopropanoyl)piperidin-4-yl)ethylamino)-4-(5-(trifluoromethyl)-1H-pyrrolo[2,3-b]pyridin-3-yl)pyrimidine-5-carbonitrile]"
12,< 3 nM,"CC(Nc1ncc(C#N)c(-c2c[nH]c3ncc(C(F)(F)F)cc23)n1)c1ccc(N2CC(O)C2)nc1 (stereo not shown) [Compound I-201, 2-(1-(6-(3-hydroxyazetidin-1-yl)pyridin-3-yl)ethylamino)-4-(5-(trifluoromethyl)-1H-pyrrolo[2,3-b]pyridin-3-yl)pyrimidine-5-carbonitrile]"
13,< 3 nM,"CC(Nc1ncc(C#N)c(-c2c[nH]c3ncc(C(F)(F)F)cc23)n1)C1CN(C(=O)[C@@H](C)O)C1 (stereo partly drawn) [Compound I-222, 2-(1-(1-((R)-2-hydroxypropanoyl)azetidin-3-yl)ethylamino)-4-(5-(trifluoromethyl)-1H-pyrrolo[2,3-b]pyridin-3-yl)pyrimidine-5-carbonitrile]"
14,< 3 nM,"C[C@@H](Nc1ncc(C#N)c(-c2c[nH]c3ncc(C(F)(F)F)cc23)n1)c1ccc(NS(C)(=O)=O)cc1 [Compound I-136, N-(4-((1R)-1-(5-cyano-4-(5-(trifluoromethyl)-1H-pyrrolo[2,3-b]pyridin-3-yl)pyrimidin-2-ylamino)ethyl)phenyl)methanesulfonamide]"
15,< 3 nM,"C[C@@H](Nc1ncc(C#N)c(-c2c[nH]c3ncc(C(F)(F)F)cc23)n1)C1CCN(C(=O)CCN)CC1 [Compound I-224, 2-((R)-1-(1-(3-aminopropanoyl)piperidin-4-yl)ethylamino)-4-(5-(trifluoromethyl)-1H-pyrrolo[2,3-b]pyridin-3-yl)pyrimidine-5-carbonitrile]"
16,3 to 40 nM,"CC(C)NC(=O)c1ccc([C@@H](C)Nc2ncc(C#N)c(-c3c[nH]c4ncc(C(F)(F)F)cc34)n2)cc1 [Compound I-172, 4-((1R)-1-(5-cyano-4-(5-(trifluoromethyl)-1H-pyrrolo[2,3-b]pyridin-3-yl)pyrimidin-2-ylamino)ethyl)-N-isopropylbenzamide]"

# From US8530489B2 (Vertex Pharmaceuticals Incorporated, priority 2006, dated 2013)
